Source: patent US8871753B2, “Macrocyclic compounds and their use as kinase inhibitors” (Incyte Corporation, priority 2008, dated 2014)
Where a name gives a salt, the structure may show the parent alone. Read-outs that look alike come from different tables or passages of the source.

Experiments:
Type in all cases: biochemical
[1] = target: T1, human JAK1 (a.a. 837-1142) (Homo sapiens, UniProt P23458); assay: In vitro JAK kinase assay (HTRF, phosphorylation of a biotinylated peptide), JAK1; conditions: read-out: JAK1 IC50
T1 construct: human JAK1 (a.a. 837-1142); His tag (N); made in house; host or cells: insect cells (baculovirus)
T1 sequence (P23458 849-1154): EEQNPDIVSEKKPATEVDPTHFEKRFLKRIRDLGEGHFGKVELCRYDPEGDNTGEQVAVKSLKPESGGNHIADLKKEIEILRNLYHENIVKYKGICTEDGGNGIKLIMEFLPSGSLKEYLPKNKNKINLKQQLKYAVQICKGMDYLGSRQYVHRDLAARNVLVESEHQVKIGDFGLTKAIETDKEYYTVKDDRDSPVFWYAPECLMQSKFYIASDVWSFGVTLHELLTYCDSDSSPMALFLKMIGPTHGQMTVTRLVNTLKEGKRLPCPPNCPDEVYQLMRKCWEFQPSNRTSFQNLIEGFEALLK
Outline: (§1)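 Kinase reactions ran at room temperature for 1 h with ATP matched per isoform (JAK1 90 μM, JAK2 30 μM, JAK3 3 μM). After an EDTA stop, the phosphorylated biotin-peptide was read by HTRF using Eu-Py20 and SA-APC after 40 min binding.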

[2] = target: T2, human JAK2 (a.a. 828-1132) (Homo sapiens, UniProt O60674); assay: In vitro JAK kinase assay (HTRF, phosphorylation of a biotinylated peptide), JAK2
T2 construct: JAK2 (a.a. 828-1132); His tag (N); made in house; host or cells: insect cells (baculovirus)
T2 sequence (O60674 828-1132): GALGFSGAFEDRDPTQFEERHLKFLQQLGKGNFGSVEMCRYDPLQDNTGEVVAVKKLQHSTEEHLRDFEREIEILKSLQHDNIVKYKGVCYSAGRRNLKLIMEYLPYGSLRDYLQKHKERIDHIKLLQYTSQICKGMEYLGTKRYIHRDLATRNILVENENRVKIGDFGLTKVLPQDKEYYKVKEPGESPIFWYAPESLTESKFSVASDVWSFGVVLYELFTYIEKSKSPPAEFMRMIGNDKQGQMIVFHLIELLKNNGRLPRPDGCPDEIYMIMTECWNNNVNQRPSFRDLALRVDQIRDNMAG
Outline: as §1

[3] = target: T3, human JAK3 (a.a. 781-1124) (Homo sapiens, UniProt P52333); assay: In vitro JAK kinase assay (HTRF, phosphorylation of a biotinylated peptide), JAK3
T3 construct: JAK3 (a.a. 781-1124); His tag (N); made in house; host or cells: insect cells (baculovirus)
T3 sequence (P52333 781-1124): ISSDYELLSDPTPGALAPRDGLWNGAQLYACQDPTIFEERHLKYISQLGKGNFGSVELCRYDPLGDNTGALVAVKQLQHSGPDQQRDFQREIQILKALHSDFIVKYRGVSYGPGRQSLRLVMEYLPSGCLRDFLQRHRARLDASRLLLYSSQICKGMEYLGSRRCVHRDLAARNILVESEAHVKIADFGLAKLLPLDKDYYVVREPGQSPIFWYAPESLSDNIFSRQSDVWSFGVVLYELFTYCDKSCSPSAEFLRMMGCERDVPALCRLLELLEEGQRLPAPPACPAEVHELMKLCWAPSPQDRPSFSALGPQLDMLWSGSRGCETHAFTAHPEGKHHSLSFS
Outline: as §1

[4] = target: TYK2 (Homo sapiens, UniProt P29597); assay: TYK2 kinase inhibition (Table A1)
Sequence of TYK2 (P29597 whole entry): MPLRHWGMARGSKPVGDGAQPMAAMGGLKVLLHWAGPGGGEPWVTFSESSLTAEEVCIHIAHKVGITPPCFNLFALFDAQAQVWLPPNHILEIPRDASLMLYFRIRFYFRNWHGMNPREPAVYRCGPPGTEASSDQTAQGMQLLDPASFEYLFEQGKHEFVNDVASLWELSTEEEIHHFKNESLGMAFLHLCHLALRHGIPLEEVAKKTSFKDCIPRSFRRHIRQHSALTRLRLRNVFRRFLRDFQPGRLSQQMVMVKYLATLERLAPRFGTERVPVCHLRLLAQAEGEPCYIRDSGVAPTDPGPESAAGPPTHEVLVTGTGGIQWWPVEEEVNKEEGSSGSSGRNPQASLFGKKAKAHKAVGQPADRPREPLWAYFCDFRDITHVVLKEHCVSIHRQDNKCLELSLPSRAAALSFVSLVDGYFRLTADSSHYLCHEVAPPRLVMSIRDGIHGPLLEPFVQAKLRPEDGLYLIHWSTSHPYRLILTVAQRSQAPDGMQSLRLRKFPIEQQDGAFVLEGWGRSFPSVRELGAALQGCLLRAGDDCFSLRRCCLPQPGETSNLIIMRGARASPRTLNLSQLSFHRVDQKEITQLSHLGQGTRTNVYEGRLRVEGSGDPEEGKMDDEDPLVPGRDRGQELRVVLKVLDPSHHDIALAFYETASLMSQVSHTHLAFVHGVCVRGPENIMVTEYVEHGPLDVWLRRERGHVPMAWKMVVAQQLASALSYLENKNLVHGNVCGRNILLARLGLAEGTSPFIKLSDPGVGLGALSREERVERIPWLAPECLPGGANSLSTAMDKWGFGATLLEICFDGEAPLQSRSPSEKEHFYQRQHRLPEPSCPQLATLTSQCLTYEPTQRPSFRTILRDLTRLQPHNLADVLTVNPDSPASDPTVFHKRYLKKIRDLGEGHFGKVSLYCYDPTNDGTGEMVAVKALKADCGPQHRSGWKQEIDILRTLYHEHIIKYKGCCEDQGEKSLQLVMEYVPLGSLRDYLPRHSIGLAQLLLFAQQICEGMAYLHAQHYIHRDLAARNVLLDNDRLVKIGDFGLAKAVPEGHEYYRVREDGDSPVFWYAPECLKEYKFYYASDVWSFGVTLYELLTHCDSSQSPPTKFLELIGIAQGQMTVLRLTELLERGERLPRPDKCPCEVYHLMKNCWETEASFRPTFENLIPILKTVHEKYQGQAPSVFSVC

[5] = target: T4, Recombinant Human Anaplastic Lymphoma Kinase (Homo sapiens, UniProt Q9UM73); assay: ALK HTRF kinase assay
T4 construct: purchased Invitrogen, Carlsbad, Calif
T4 sequence (Q9UM73 19-1620): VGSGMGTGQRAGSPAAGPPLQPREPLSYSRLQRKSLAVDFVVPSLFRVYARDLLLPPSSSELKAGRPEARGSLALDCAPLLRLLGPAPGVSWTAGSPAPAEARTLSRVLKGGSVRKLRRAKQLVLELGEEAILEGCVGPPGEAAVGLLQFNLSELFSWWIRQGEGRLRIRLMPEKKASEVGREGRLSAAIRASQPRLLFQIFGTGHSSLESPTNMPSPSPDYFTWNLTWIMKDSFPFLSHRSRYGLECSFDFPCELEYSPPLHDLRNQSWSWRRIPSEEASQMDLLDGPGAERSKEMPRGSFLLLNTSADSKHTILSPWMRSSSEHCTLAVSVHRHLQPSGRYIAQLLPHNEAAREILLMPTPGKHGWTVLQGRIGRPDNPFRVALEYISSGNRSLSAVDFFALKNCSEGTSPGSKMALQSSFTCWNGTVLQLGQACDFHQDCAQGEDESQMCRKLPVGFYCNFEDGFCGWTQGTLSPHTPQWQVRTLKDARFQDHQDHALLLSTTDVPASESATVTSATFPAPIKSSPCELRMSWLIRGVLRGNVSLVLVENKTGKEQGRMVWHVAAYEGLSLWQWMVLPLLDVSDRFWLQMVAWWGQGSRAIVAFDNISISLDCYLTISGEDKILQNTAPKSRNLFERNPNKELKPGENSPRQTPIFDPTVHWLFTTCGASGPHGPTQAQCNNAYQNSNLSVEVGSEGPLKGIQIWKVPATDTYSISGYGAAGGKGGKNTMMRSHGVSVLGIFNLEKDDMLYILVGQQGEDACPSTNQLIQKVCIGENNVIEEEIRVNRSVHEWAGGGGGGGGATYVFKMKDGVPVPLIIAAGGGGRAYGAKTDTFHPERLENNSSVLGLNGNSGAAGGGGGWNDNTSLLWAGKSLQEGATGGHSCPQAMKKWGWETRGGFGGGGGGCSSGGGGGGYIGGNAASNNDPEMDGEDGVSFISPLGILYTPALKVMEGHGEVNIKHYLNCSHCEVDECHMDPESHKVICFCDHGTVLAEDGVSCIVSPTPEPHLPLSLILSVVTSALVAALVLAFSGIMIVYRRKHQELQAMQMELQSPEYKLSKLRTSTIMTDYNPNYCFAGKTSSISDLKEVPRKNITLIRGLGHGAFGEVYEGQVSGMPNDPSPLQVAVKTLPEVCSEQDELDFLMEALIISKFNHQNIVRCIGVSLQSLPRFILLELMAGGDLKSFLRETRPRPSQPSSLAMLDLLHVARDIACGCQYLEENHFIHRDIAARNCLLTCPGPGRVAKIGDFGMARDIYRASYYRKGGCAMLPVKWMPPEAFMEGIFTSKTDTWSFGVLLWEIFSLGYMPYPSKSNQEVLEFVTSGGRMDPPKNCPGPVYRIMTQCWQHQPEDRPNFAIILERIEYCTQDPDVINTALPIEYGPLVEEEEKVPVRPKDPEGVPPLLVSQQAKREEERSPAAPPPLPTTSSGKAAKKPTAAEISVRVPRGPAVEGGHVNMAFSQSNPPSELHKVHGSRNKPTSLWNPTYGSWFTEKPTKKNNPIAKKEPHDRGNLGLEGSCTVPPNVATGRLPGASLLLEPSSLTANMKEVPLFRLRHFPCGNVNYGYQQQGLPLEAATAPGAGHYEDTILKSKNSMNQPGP
Outline: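 Recombinant human ALK phosphorylated a biotinylated synthetic peptide. Phosphotyrosine was detected by TR-FRET between a Eu-labelled anti-phosphotyrosine antibody and streptavidin-allophycocyanin. IC50 values came from fitting signal against inhibitor concentration to a four-parameter logistic equation with variable Hill slope.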

[6] = method AA1 (90 μM ATP) or AA2 (1000 μM ATP), not stated per value
[7] = method AA1 (30 μM ATP) or AA2 (1000 μM ATP), not stated per value
[8] = method AA1 (3 μM ATP) or AA2 (1000 μM ATP), not stated per value
[9] = compound at 500 nM or 1 mM, 90 μM ATP
[10] = compound at a concentration of 500 nM or 1 mM (not specified), cells shown as percentage
[11] = Table B1, cells without percent sign
[12] = percentage inhibition of the example compound at a concentration of 500 nM or 1 mM (not specified which)

IC50 [1, 6]	IC50 [2, 7]	IC50 [3, 8]	IC50 [4]	ALK % of inhibition at a concentration of 500 nM or 1 mM [5, 9]	IC50 ([1]; Table B1)	IC50 ([2]; Table B1)	IC50 ([3]; Table B1)	IC50 ([4]; Table B1)	SMILES	also measured
0.5 nM	1.1 nM	> 100 nM	5.7 nM	52%	–	–	–	–	COc1cccc(NC(=O)N2CCC(CC(=O)Nc3ccc4cc3CCc3cncc(c3)Nc3ncc(Cl)c(n3)N4)CC2)c1 [Example A153, 4-(2-{[6-chloro-2,4,8,18,22-pentaazatetracyclo[14.3.1.1(3,7).1(9,13)]docosa-1(20),3(22),4,6,9(21),10,12,16,18-nonaen-12-yl]amino}-2-oxoethyl)-N-(3-methoxyphenyl)piperidine-1-carboxamide bis(trifluoroacetate)]	–
–	–	–	–	–	–	–	–	–	Clc1cnc2nc1Nc1cccc(c1)COCc1cccc(c1)N2 [Example D21, 6-Chloro-15-oxa-2,4,8,23-tetraazatetracyclo[15.3.1.1(3,7).1(9,13)]tricosa-1(21),3(23),4,6,9(22),10,12,17,19-nonaene trifluoroacetate]	IC50 ([1]; Table D1): 8.1 nM; IC50 ([2]; Table D1): 13 nM; IC50 ([3]; Table D1): 45 nM; IC50 ([4]; Table D1): 27 nM; IC50 ([5]; Table D1, 90 μM ATP): 984 nM
–	–	–	–	–	–	–	–	–	O=S1(=O)CCc2cccc(c2)Nc2ncc(Cl)c(n2)Nc2cccc1c2 [Example D24, 6-chloro-14-thia-2,4,8,23-tetraazatetracyclo[15.3.1.1(3,7).1(9,13)]tricosa-1(21),3(23),4,6,9(22),10,12,17,19-nonaene 14,14-dioxide trifluoroacetate]	IC50 ([1]; Table D1): 5 nM; IC50 ([2]; Table D1): 6 nM; IC50 ([3]; Table D1): 20 nM; IC50 ([4]; Table D1): 16 nM; IC50 ([5]; Table D1, 90 μM ATP): 1370 nM
–	–	–	–	–	8.9 nM	20 nM	164 nM	52 nM	CCC(C)c1ccccc1NC(=O)Nc1ccc2cc1CCc1cccc(c1)Nc1ncc(Cl)c(n1)N2 (stereo not shown) [Example B126, N-(2-sec-Butylphenyl)-N′-[6-chloro-2,4,8,22-tetraazatetracyclo[14.3.1.1(3,7).1(9,13)]docosa-1(20),3(22),4,6,9(21),10,12,16,18-nonaen-12-yl]urea trifluoroacetate]	ALK % of inhibition at a concentration of 500 nM or 1 mM [5, 10]: 6.1%
–	–	–	–	–	44 nM	19 nM	102 nM	34 nM	O=S(=O)(Nc1cc2cc(c1)Nc1nc(ncc1Cl)Nc1cccc(c1)CC2)c1ccccc1 [Example B203, N-[6-Chloro-2,4,8,22-tetraazatetracyclo[14.3.1.1(3,7).1(9,13)]docosa-1(20),3(22),4,6,9(21),10,12,16,18-nonaen-11-yl]benzenesulfonamide trifluoroacetate]	IC50 [5, 11]: > 10000 nM
14 nM	4.2 nM	11 nM	14 nM	41%	–	–	–	–	Cc1cc(C(=O)N2CCCC(C(=O)Nc3ccc4cc3CCc3cccc(c3)Nc3ncc(Cl)c(n3)N4)C2)no1 (stereo not shown) [Example A121, N-[6-Chloro-2,4,8,22-tetraazatetracyclo[14.3.1.1(3,7).1(9,13)]docosa-1(20),3(22),4,6,9(21),10,12,16,18-nonaen-12-yl]-1-[(5-methylisoxazol-3-yl)carbonyl]piperidine-3-carboxamide trifluoroacetate]	–
–	–	–	–	–	12 nM	14 nM	2.1 nM	0.89 nM	N#CNC(=O)Nc1ccc2cc1CCc1cccc(c1)Nc1ncc(Cl)c(n1)N2 [Example B323, N-[6-chloro-2,4,8,22-tetraazatetracyclo[14.3.1.1(3,7).1(9,13)]docosa-1(20),3(22),4,6,9(21),10,12,16,18-nonaen-12-yl]-N′-cyanourea trifluoroacetate]	ALK % of inhibition at a concentration of 500 nM or 1 mM [5, 12]: 20%
–	–	–	–	–	28 nM	108 nM	> 400 nM	67 nM	O=C(Nc1ccc2cc1CCc1cncc(c1)Nc1ncc(Cl)c(n1)N2)N1CCC(c2ccccc2)CC1 [Example B314, N-[6-Chloro-2,4,8,18,22-pentaazatetracyclo[14.3.1.1(3,7).1(9,13)]docosa-1(20),3(22),4,6,9(21),10,12,16,18-nonaen-12-yl]-4-phenylpiperidine-1-carboxamide bis(trifluoroacetate)]	ALK % of inhibition at a concentration of 500 nM or 1 mM [5, 12]: 69%
50 nM	15 nM	45 nM	55 nM	–	–	–	–	–	c1cc2cc(c1)Nc1ccnc(n1)Nc1cccc(c1)CC2 [Example A3, 2,4,8,22-Tetraazatetracyclo[14.3.1.1(3,7).1(9,13)]docosa-1(20),3(22),4,6,9(21),10,12,16,18-nonaene trifluoroacetate]	IC50 ([5]; 90 μM ATP): 2040 nM
–	–	–	–	–	1.5 nM	0.74 nM	10 nM	4 nM	O=C(Nc1ccc2cc1CCc1cccc(c1)Nc1ncc(Cl)c(n1)N2)NC1CC1 [Example B240, N-[6-Chloro-2,4,8,22-tetraazatetracyclo[14.3.1.1(3,7).1(9,13)]docosa-1(20),3(22),4,6,9(21),10,12,16,18-nonaen-12-yl]-N′-cyclopropylurea trifluoroacetate]	ALK % of inhibition at a concentration of 500 nM or 1 mM [5, 10]: 15%
–	–	–	–	–	1.4 nM	2.3 nM	19 nM	3.6 nM	Cc1cc(C(=O)Nc2ccc3cc2CCc2cccc(c2)Nc2ncc(Cl)c(n2)N3)no1 [Example B68, N-[6-Chloro-2,4,8,22-tetraazatetracyclo[14.3.1.1(3,7).1(9,13)]docosa-1(20), 3(22),4,6,9(21),10,12,16,18-nonaen-12-yl]-5-methylisoxazole-3-carboxamide trifluoroacetate]	ALK % of inhibition at a concentration of 500 nM or 1 mM [5, 10]: 19%
29 nM	40 nM	112 nM	44 nM	23%	–	–	–	–	O=C(CC1CCNC1)Nc1ccc2cc1CCc1cncc(c1)Nc1ncc(Cl)c(n1)N2 (stereo not shown) [Example A105, N-[6-Chloro-2,4,8,18,22-pentaazatetracyclo[14.3.1.1(3,7).1(9,13)]docosa-1(20),3(22),4,6,9(21),10,12,16,18-nonaen-12-yl]-2-pyrrolidin-3-ylacetamide tris(trifluoroacetate)]	–
0.4 nM	0.3 nM	12 nM	0.3 nM	39%	–	–	–	–	NS(=O)(=O)N1CCC(CC(=O)Nc2ccc3cc2CCc2cncc(c2)Nc2ncc(Cl)c(n2)N3)CC1 [Example A78, 2-[1-(Aminosulfonyl)piperidin-4-yl]-N-[6-chloro-2,4,8,18,22pentaazatetracyclo[14.3.1.1(3,7).1(9,13)]docosa-1(20),3(22),4,6,9(21),10,12,16,18-nonaen-12-yl]acetamide bis(trifluoroacetate)]	–
–	–	–	–	–	0.2 nM	0.12 nM	2.7 nM	0.66 nM	O=C(Nc1ccc2cc1CCc1cccc(c1)Nc1ncc(Cl)c(n1)N2)c1ccncc1 [Example B39, N-[6-Chloro-2,4,8,22-tetraazatetracyclo[14.3.1.1(3,7).1(9,13)]docosa-1(20), 3(22),4,6,9(21),10,12,16,18-nonaen-12-yl]isonicotinamide bis(trifluoroacetate)]	IC50 [5, 11]: 86 nM
2.4 nM	6.7 nM	26 nM	27 nM	48%	–	–	–	–	O=C(Nc1ccc2cc1CCc1cccc(c1)Nc1ncc(Cl)c(n1)N2)C1CCN(C(=O)Nc2ccccc2)CC1 [Example A36, N(4)-[6-Chloro-2,4,8,22-tetraazatetracyclo[14.3.1.1(3,7).1(9,13)]docosa-1(20),3(22),4,6,9(21),10,12,16,18-nonaen-12-yl]-N(1)-phenylpiperidine-1,4-dicarboxamide trifluoroacetate]	–
43 nM	79 nM	> 200 nM	> 200 nM	29%	–	–	–	–	O=C(CC1CCN(C(=O)c2cccnc2)CC1)Nc1ccc2cc1CCc1cccc(c1)Nc1ncc(Cl)c(n1)N2 [Example A184, N-[6-Chloro-2,4,8,22-tetraazatetracyclo[14.3.1.1(3,7).1(9,13)]docosa-1(20),3(22),4,6,9(21),10,12,16,18-nonaen-12-yl]-2-[1-(pyridin-3-ylcarbonyl)piperidin-4-yl]acetamide bis(trifluoroacetate)]	–
24 nM	9 nM	49 nM	16 nM	31%	–	–	–	–	CC(C)NC(=O)N1CCC(CC(=O)Nc2ccc3cc2CCc2cccc(c2)Nc2ncc(Cl)c(n2)N3)CC1 [Example A84, 4-(2-{[6-Chloro-2,4,8,22-tetraazatetracyclo[14.3.1.1(3,7).1(9,13)]docosa-1(20),3(22),4,6,9(21),10,12,16,18-nonaen-12-yl]amino}-2-oxoethyl)-N-isopropylpiperidine-1-carboxamide trifluoroacetate]	–
